This note sets out measurements from patent publication US6608004B2, “Substituted 2-aryl-1,2,4-triazine-3,5-di(thi)ones” (priority 1999, dated 2003).

In series [1] the test system is crop plants, such as, for example, barley, wheat, rapeseed, soya and sugar beet. Description: Pre-Emergence Test (Example A), tolerance by crop plants. Type of series: in vivo. An excerpt:
(§1) Solvent: 5 parts by weight of acetone
(§2) Emulsifier: 1 part by weight of alkylaryl polyglycol ether
(§3) Seeds of the test plants are sown in normal soil.

Series [2] has as its system weeds. Description: Pre-Emergence Test (Example A), activity against weeds. The settings on record: soil sprayed about 24 hours after sowing, rated after three weeks. Type of series: in vivo.
Description: as §1, §2, §3
0%=no effect (like untreated control)

The test system of series [3] is weeds. Description: Post-Emergence Test (Example B), activity against weeds. The series is classed as in vivo. The settings on record: test plants of a height of 5-15 cm sprayed, rated after three weeks.
Description: as §1, §2
(§4) After three weeks, the degree of damage to the plants is rated in % damage in comparison to the development of the untreated control.

Series [4] deals with crop plants, such as, for example, barley and wheat. Description: Post-Emergence Test (Example B), tolerance by crop plants.
Description: as §1, §2, §4

Series [5] is described as follows: logP determination by HPLC, reversed-phase column (C 18), EEC Directive 79/831 Annex V.A8. An excerpt: (a) Mobile phases for the determination in the acidic range: 0.1% aqueous phosphoric acid, acetonitrile; linear gradient from 10% acetonitrile to 90% acetonitrile—the corresponding measurement results are labelled in Table 1 with ^a).
(b) Mobile phases for the determination in the neutral range: 0.01 molar aqueous phosphate buffer solution, acetonitrile; linear gradient from 10% acetonitrile to 90% acetonitrile—the corresponding measurement results are labelled in Table 1 with ^b).

Setting [6] is: a) acidic range: 0.1% aqueous phosphoric acid, acetonitrile gradient, HPLC C 18, 43° C.
Where [7] appears, read: pre-emergence, barley, wheat, rapeseed, soya and sugar beet, rated after three weeks.
[8] abbreviates: post-emergence, barley and wheat, rated after three weeks.

Each structure is given as a SMILES string. Read-outs that look alike come from different tables or passages of the source.

With `CCCCC(CC)C(=O)N(c1cc(-n2ncc(=O)n(C)c2=O)c(F)cc1C#N)S(=O)(=O)CC` (racemic) [Example 7], the “tolerance by crop plants” value in series [1] (in vivo) and in series [4] (in vivo) was “essentially being tolerated well” in each case. Besides, the “activity against weeds (degree of damage)” value (shortened to “activity against weeds”) in the series with weeds [2] and with weeds [3] was “very strong activity” in each case. Moreover, the “logP a)” value in series [5] is “m.p.: 140 °C logP = 3.53^a)”.

As for `CCC(Oc1ccccc1)C(=O)N(c1cc(-n2ncc(=O)n(C)c2=O)c(F)cc1C#N)S(=O)(=O)CC` (racemic) [Example 33], the “tolerance by crop plants” value in series [1] (in vivo) and in series [4] (in vivo) was “essentially being tolerated well” in each case. Also, the “activity against weeds” value in the series with weeds [2] and with weeds [3] was “very strong activity” in each case. Also, the “logP a)” value in series [5] was “m.p.: 128 °C logP = 3.12^a)”.

In the case of `CCS(=O)(=O)N(C(=O)C(C)c1c(Cl)cccc1Cl)c1cc(-n2ncc(=O)n(C)c2=O)c(F)cc1C#N` (racemic) [Example 34], in series [5] (setting [6]), the “logP a)” value is “m.p.: 159 °C logP = 3.07^a)”.

Consider `CCS(=O)(=O)N(C(=O)C1CCc2ccccc2O1)c1cc(-n2ncc(=O)n(C)c2=O)c(F)cc1C#N` (racemic) [Example 38], for which the “logP a)” value in series [5] is “m.p.: 115 °C logP = 2.93^a)”.

Take `CCS(=O)(=O)N(C(=O)C(C)Oc1ccccc1)c1cc(-n2ncc(=O)n(C)c2=O)c(F)cc1C#N` (racemic) [Example 39]: the “tolerance by crop plants” value in series [1] (in vivo) and in series [4] (in vivo) was “essentially being tolerated well” throughout. Further, the “activity against weeds” value in the series with weeds [2] and with weeds [3] was “very strong activity” each time. Moreover, in series [5], the “logP a)” value was “m.p.: 132 °C logP = 2.85^a)”.

For the compound `CCS(=O)(=O)N(C(=O)C(C)Cl)c1cc(-n2ncc(=O)n(C)c2=O)c(F)cc1C#N` (racemic) [Example 61], the “tolerance by crop plants” value in series [1] (in vivo) and in series [4] (in vivo) was “essentially being tolerated well” each time. In addition, the “activity against weeds” value in the series with weeds [2] and in the series with weeds [3] was “very strong activity” in each case. Moreover, in series [5], the “logP a)” value is given as “logP = 2.38^a)”.

As to `CCS(=O)(=O)N(C(=O)CCl)c1cc(-n2ncc(=O)n(C)c2=O)c(F)cc1C#N` [Example 4], the “tolerance by crop plants” value in series [1] (in vivo) and in series [4] (in vivo) was “essentially being tolerated well” each time. Moreover, the “activity against weeds” value in the series on weeds [2] and in the series on weeds [3] was “very strong activity” each time. Besides, the “logP a)” value in series [5] is recorded as “logP = 2.09^a)”.

Turning to `CCS(=O)(=O)N(C(=O)c1ccccc1F)c1cc(-n2ncc(=O)n(C)c2=O)c(F)cc1C#N` [Example 5], the “tolerance by crop plants” value in series [1] (in vivo) and in series [4] (in vivo) was “essentially being tolerated well” in each case. The “activity against weeds” value in the series with weeds [2] and in the series on weeds [3] was “very strong activity” throughout. The “logP a)” value in series [5] was “m.p.: 176 °C logP = 2.52^a)”.

With `CCS(=O)(=O)N(C(=O)COc1ccc(Cl)cc1)c1cc(-n2ncc(=O)n(C)c2=O)c(F)cc1C#N` [Example 6], the “tolerance by crop plants” value in series [1] (in vivo) and in series [4] (in vivo) was “essentially being tolerated well” each time. Further, the “activity against weeds” value in the series with weeds [2] and in the series with weeds [3] was “very strong activity” in each case. In addition, in series [5], the “logP a)” value was “m.p.: 65 °C logP = 3.07^a)”.

`CCS(=O)(=O)N(C(=O)C(C)(C)C)c1cc(-n2ncc(=O)n(C)c2=O)c(F)cc1C#N` [Example 10]: the “tolerance by crop plants” value in series [1] (in vivo) and in series [4] (in vivo) was “essentially being tolerated well” throughout. Also, the “activity against weeds” value with weeds [2] and with weeds [3] was “very strong activity” each time. For the same compound, the “logP a)” value in series [5] is on record as “logP = 2.71^a)”.

On to `CCS(=O)(=O)N(C(=O)c1ccc(OC)cc1)c1cc(-n2ncc(=O)n(C)c2=O)c(F)cc1C#N` [Example 11], for which the “tolerance by crop plants” value in series [1] (setting [7]) is “essentially being tolerated well”. Moreover, in the series with weeds [2], the “activity against weeds” value is reported as “very strong activity”. For the same compound, the “logP a)” value in series [5] was “m.p.: 94 °C logP = 2.77^a)”.

`CCS(=O)(=O)N(C(=O)C(C)C)c1cc(-n2ncc(=O)n(C)c2=O)c(F)cc1C#N` [Example 13]: the “tolerance by crop plants” value in series [1] (in vivo) and in series [4] (in vivo) was “essentially being tolerated well” throughout. For the same compound, the “activity against weeds” value in the series with weeds [2] and with weeds [3] was “very strong activity” throughout. The “logP a)” value in series [5] is “logP = 2.50^a)”.

Turning to `CCS(=O)(=O)N(C(=O)c1ccco1)c1cc(-n2ncc(=O)n(C)c2=O)c(F)cc1C#N` [Example 14], the “tolerance by crop plants” value in series [1] (in vivo) and in series [4] (in vivo) was “essentially being tolerated well” throughout. Also, the “activity against weeds” value in the series on weeds [2] and in the series on weeds [3] was “very strong activity” in each case. Besides, the “logP a)” value in series [5] is “m.p.: 90 °C logP = 2.31^a)”.

Turning to `CCS(=O)(=O)N(C(=O)C1CCCCC1)c1cc(-n2ncc(=O)n(C)c2=O)c(F)cc1C#N` [Example 16], the “tolerance by crop plants” value in series [1] (setting [7]) and in series [4] (setting [8]) was “essentially being tolerated well” each time. Further, the “activity against weeds” value with weeds [2] and with weeds [3] was “very strong activity” throughout. Moreover, the “logP a)” value in series [5] (setting [6]) was “m.p.: 182 °C logP = 2.46^a)”.

`C/C=C/C(=O)N(c1cc(-n2ncc(=O)n(C)c2=O)c(F)cc1C#N)S(=O)(=O)CC` [Example 18]: the “tolerance by crop plants” value in series [1] (setting [7]) and in series [4] (setting [8]) was “essentially being tolerated well” in each case. The “activity against weeds” value in the series on weeds [2] and in the series on weeds [3] was “very strong activity” each time. Besides, in series [5] (setting [6]), the “logP a)” value is “m.p.: 153 °C logP = 2.16^a)”.

In the case of `CCS(=O)(=O)N(C(=O)CC(C)(C)C)c1cc(-n2ncc(=O)n(C)c2=O)c(F)cc1C#N` [Example 19], the “tolerance by crop plants” value in series [1] (in vivo) and in series [4] (in vivo) was “essentially being tolerated well” each time. The “activity against weeds” value in the series on weeds [2] and in the series on weeds [3] was “very strong activity” throughout. For the same compound, in series [5], the “logP a)” value is reported as “logP = 2.94^a)”.

Regarding `C=CC(=O)N(c1cc(-n2ncc(=O)n(CCF)c2=O)c(F)cc1C#N)S(C)(=O)=O` [Example 62], in series [5] (setting [6]), the “logP a)” value was “m.p.: 142 °C logP = 1.93^a)”.

For `C/C=C/C(=O)N(c1cc(-n2ncc(=O)n(CCF)c2=O)c(F)cc1C#N)S(C)(=O)=O` [Example 63], in series [5] (setting [6]), the “logP a)” value is “m.p.: 85 °C logP = 2.12^a)”.

On to `C=CC(=O)N(c1cc(-n2ncc(=O)n(CCF)c2=O)c(F)cc1C#N)S(=O)(=O)CCC` [Example 64], for which the “logP a)” value in series [5] (setting [6]) is “m.p.: 142 °C logP = 2.46^a)”.

Consider `C=CC(=O)N(c1cc(-n2ncc(=O)n(CCF)c2=O)c(F)cc1C#N)S(=O)(=O)CC` [Example 65], for which, in series [5] (setting [6]), the “logP a)” value was “m.p.: 83 °C logP = 2.14^a)”.

Consider `CCS(=O)(=O)N(C(=O)c1cn(C)nc1C(F)(F)F)c1cc(-n2ncc(=O)n(C)c2=O)c(F)cc1C#N` [Example 67], for which the “logP a)” value in series [5] is “m.p.: 199 °C logP = 2.54^a)”.

Regarding `CCS(=O)(=O)N(C(=O)c1snnc1C)c1cc(-n2ncc(=O)n(C)c2=O)c(F)cc1C#N` [Example 68], the “logP a)” value in series [5] is “m.p.: 189 °C logP = 1.73^a)”.

With `CCS(=O)(=O)N(C(=O)N1CCCC1)c1cc(-n2ncc(=O)n(C)c2=O)c(F)cc1C#N` [Example 69], the “logP a)” value in series [5] is “m.p.: 192 °C logP = 2.05^a)”.

As for `CCS(=O)(=O)N(C(=O)N(C(C)C)C(C)C)c1cc(-n2ncc(=O)n(C)c2=O)c(F)cc1C#N` [Example 71], the “logP a)” value in series [5] was “m.p.: 188 °C logP = 2.92^a)”.

As for `CCS(=O)(=O)N(C(=O)Oc1ccc(F)cc1)c1cc(-n2ncc(=O)n(C)c2=O)c(F)cc1C#N` [Example 74], in series [5], the “logP a)” value is “m.p.: 202 °C logP = 2.85^a)”.

Regarding `CCS(=O)(=O)N(C(=O)CCCc1ccc(OC)cc1)c1cc(-n2ncc(=O)n(C)c2=O)c(F)cc1C#N` [Example 76], the “logP a)” value in series [5] is “logP = 3.03^a)”.

Turning to `CCS(=O)(=O)N(C(=O)/C=C/c1ccc2c(c1)OCO2)c1cc(-n2ncc(=O)n(C)c2=O)c(F)cc1C#N` [Example 77], the “logP a)” value in series [5] (setting [6]) was “m.p.: 141 °C logP = 2.72^a)”.

Consider `CCS(=O)(=O)N(C(=O)CC(c1ccccc1)c1ccccc1)c1cc(-n2ncc(=O)n(C)c2=O)c(F)cc1C#N` [Example 78], for which the “logP a)” value in series [5] was “m.p.: 183 °C logP = 3.48^a)”.

In the case of `CCS(=O)(=O)N(C(=O)Cc1ccccc1OC)c1cc(-n2ncc(=O)n(C)c2=O)c(F)cc1C#N` [Example 80], the “logP a)” value in series [5] was “m.p.: 140 °C logP = 2.70^a)”.

Take `CCS(=O)(=O)N(C(=O)Cc1cc(OC)ccc1OC)c1cc(-n2ncc(=O)n(C)c2=O)c(F)cc1C#N` [Example 81]: in series [5], the “logP a)” value was “m.p.: 192 °C logP = 2.66^a)”.

Turning to `CCS(=O)(=O)N(C(=O)Cc1cccc(OC)c1)c1cc(-n2ncc(=O)n(C)c2=O)c(F)cc1C#N` [Example 82], the “logP a)” value in series [5] is “m.p.: 158 °C logP = 2.63^a)”.
